The target in experiment [1] is T1, ETB (rat cerebellar membranes) (Rattus norvegicus, UniProt P21451).
T1 construct: thaw one aliquot of frozen rat cerebellar membranes; from tissue; host or cells: rat cerebellar membranes
T1 sequence (P21451 27-442): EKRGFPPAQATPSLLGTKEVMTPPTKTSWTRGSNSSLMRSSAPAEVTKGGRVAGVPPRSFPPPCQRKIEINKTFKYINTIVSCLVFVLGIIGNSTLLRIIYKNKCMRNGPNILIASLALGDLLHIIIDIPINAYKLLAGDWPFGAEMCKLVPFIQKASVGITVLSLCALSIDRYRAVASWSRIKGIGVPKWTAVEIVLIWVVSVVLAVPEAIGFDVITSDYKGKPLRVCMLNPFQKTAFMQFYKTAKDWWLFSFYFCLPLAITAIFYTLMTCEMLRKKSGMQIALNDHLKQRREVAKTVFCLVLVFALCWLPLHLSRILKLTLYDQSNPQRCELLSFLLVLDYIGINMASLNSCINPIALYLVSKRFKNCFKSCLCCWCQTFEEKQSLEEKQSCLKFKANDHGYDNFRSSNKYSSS
As to the kind of experiment: Endothelin receptor binding assay-B (ERBA-B), [125I]-ET-1 binding in rat cerebellar membranes. To be noted: for Selectivity ETA / ETB from Table I: ERBA-A versus ERBA-B; for pIC50: rat cerebellar membranes, [125I]-ET-1 25 pM. The method, then: (§1) The compounds of Formula I are valuable antagonists of endothelin. […] Compounds of Formula I were tested for their ability to inhibit [^125 I]-ET-1([^125 I]-Endothelin-1) binding in a receptor assay according to the following procedures Doherty, A. M., et al, J. Cardiovascul. Pharmacol. 17(Suppl 7):S59-61 (1991) and Doherty, A. M., et al, Bio. Org. Med. Chem. Lett. in press (1992):
ENDOTHELIN RECEPTOR BINDING ASSAY-B (ERBA-B) [^125 I]-ET-1 BINDING IN RAT CEREBELLAR MEMBRANES
The tissue is made up of 20 mM tris(hydroxy-methyl)aminomethane hydrochloride (Trizma) buffer, 2 mM ethylenediaminetetra acetate, 100 μM phenylmethylsulfonyl fluoride.
First, thaw one aliquot of frozen rat cerebellar membranes (2 mg protein in 0.5 mL). Next, add 0.5 mL membrane aliquot to 4.5 mL cold tissue buffer, polytron at 7,500 revolutions per minute for 10 seconds. Finally, dilute tissue suspension 1/100 (0.1 mL suspension+9.9 mL tissue buffer), polytron again, and place ice.
Medium 199 with Hank's salts plus 25 mM Hepes+1 mg/mL bovine serum albumin.
Amersham [^125 I]-ET-1 (aliquots of 2×10^6 cpm per […] aliquot of [^125 I]-ET-1 with 5.2 mL dilution buffer, place on ice until use (final concentration will be 20,000 cpm per tube, or 25 pM).
Add 50 μL each of cold [^125 ]-ET-1 and competing ligand to tubes on ice. Mix in 150 μL of tissue to each tube, vortex briefly, then tap to force all liquids to bottom (total assay volume=250 μL). Then place the tubes in a 37° C. water bath for 2 hours.
Add 2.5 mL cold wash buffer (50 mM Trizma buffer) to each tube, filter, and then wash tube with additional 2.5 mL wash buffer and add to filter. Finally, wash filters with an additional 2.5 mL of cold wash buffer.
Count filters for radioactivity in gamma counter.

In experiment [2] the target is T2, ETA (rabbit renal artery vascular smooth muscle cells) (Oryctolagus cuniculus, UniProt A5A8K3).
T2 construct: The cells used were rabbit renal artery vascular smooth muscle cells; endogenous in cells; host or cells: rabbit renal artery vascular smooth muscle cells
T2 sequence (A5A8K3 21-427): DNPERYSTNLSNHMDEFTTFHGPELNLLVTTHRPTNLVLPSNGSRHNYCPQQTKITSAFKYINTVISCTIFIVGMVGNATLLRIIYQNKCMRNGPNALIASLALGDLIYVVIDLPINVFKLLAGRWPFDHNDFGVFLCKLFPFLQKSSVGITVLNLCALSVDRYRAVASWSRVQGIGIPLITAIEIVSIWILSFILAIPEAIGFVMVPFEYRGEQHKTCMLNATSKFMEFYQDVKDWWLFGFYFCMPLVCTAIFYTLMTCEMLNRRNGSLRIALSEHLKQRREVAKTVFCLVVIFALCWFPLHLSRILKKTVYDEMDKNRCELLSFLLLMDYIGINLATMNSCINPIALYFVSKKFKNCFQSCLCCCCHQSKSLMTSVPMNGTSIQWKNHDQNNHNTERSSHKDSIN
The experiment in a line: Endothelin receptor binding assay-A (ERBA-A), intact cell binding of [125I]-ET-1. The protocol:
as §1
ENDOTHELIN RECEPTOR BINDING ASSAY-A (ERBA-A) INTACT CELL BINDING OF [^125 I]-ET-1
The cells used were rabbit renal artery vascular smooth muscle cells grown in a 48-well dish (1 cm^2) (confluent cells).
The growth media was Dulbeccos Modified Eagles/Ham's F12 which contained 10% fetal bovine serum and antibiotics (penicillin/streptomycin/fungizone).
The assay buffer was a medium 199 containing Hanks salts and 25 mM Hepes buffer (Gibco 380-2350AJ), supplemented with penicillin/streptomycin/fungizone (0.5%) and bovine serum albumin (1 mg/mL).
Amersham radioiodinated endothelin-1 [^125 I]-ET-1 was used at final concentration of 20,000 cpm/0.25 mL (25 pM).
Second, remove the assay buffers, place the dish on ice, and add 150 μL of cold assay buffer described above to each well. Third, add 50 μL each of cold [^125 I]-ET-1 and competing ligand to the solution (at the same time if possible). Next, place dish in a 37° C. water bath for about 2 hours and gently agitate the dish every 15 minutes. Discard the radioactive incubation mixture in the sink and wash wells three times with […] of cold phosphate buffered saline. Last, add […] of 0.25 molar sodium hydroxide, agitate for 1 hour on a rotator, and then transfer the sodium hydroxide extract to gamma counting tubes and count the radioactivity.

Experiment [3] concerns the target endothelin receptor (Rat Heart). The experiment in a line: [125I]-ET-1 receptor binding, Rat Heart. The protocol: (§2) The compounds of Formula I are valuable antagonists of endothelin. […] Compounds of Formula I were tested for their ability to inhibit [^125 I]-ET-1([^125 I]-Endothelin-1) binding in a receptor assay according to the following procedures Doherty, A. M., et al, J. Cardiovascul. Pharmacol. 17(Suppl 7):S59-61 (1991) and Doherty, A. M., et al, Bio. Org.

In experiment [4] the target is endothelin receptor (Human Placenta). As to the kind of experiment: [125I]-ET-1 receptor binding, Human Placenta. The protocol:
as §2

pIC50: −log10 of the molar value. Where “and” joins values, the source holds several entries; their conditions need not be identical. Equal entries are not always repeated.

With `CC(Cc1c[nH]c2ccccc12)(NC(=O)OC1C2CC3CC(C2)CC1C3)C(=O)N(CCc1ccccc1)CC(=O)O` (racemic) [Compound 13, (±)-N-[3-(1H-indol-3-yl)-2-methyl-1-oxo-2-[[(tricyclo[3.3.1.1^3,7]dec-2-yloxy)carbonyl]amino]-propyl]-N-(2-phenylethyl)glycine], in experiment [1], the inhibition at 10 µM amounted to 72.3%, the “Selectivity ETA / ETB from Table I” value is on record as “selective for ETB” and the pIC50 was 5.40. Further, the inhibition at 10 µM in experiment [2] was -0.2%.
For the compound `CC(Cc1c[nH]c2ccccc12)(NC(=O)OC1C2CC3CC(C2)CC1C3)C(=O)NC(CSCC(=O)O)Cc1ccccc1` (stereo not drawn) [Compound 2, [R-(R*,S*)]-[[2-[[3-(1H-indol-3-yl)-2-methyl-1-oxo-2-[[(tricyclo[3.3.1.1^3,7]dec-2-yloxy)carbonyl]-amino]propyl]amino]-3-phenylpropyl]thio]acetic acid], the IC50 in experiment [3] is 9.06 µM; in experiment [4] it was 9.88 µM.
For `CC(Cc1c[nH]c2ccccc12)(NC(=O)OC1C2CC3CC(C2)CC1C3)C(=O)NC(CC(=O)O)Cc1ccccc1` (stereo not drawn) [Compound 3, [R-(R*,S*)]-β-[[3-(1H-indol-3-yl)-2-methyl-1-oxo-2-[[(tricyclo[3.3.1.1^3,7]dec-2-yloxy)carbonyl]-amino]propyl]amino]benzenebutanoic acid], the IC50 in experiment [3] stood at 7.91 µM; in experiment [4], 0.96 µM.
On the same counts, the results for `C[C@](Cc1c[nH]c2ccccc12)(NC(=O)OC1C2CC3CC(C2)CC1C3)C(=O)NC(CC(=O)O)Cc1ccccc1` (stereo partly drawn) [Compound 5, N-[α-methyl-N-[(tricyclo[3.3.1.1^3,7]dec-2-yloxy)carbonyl]-D-tryptophyl]-D-3-(phenylmethyl)-β-alanine] are 34.5 µM and 3.84 µM.
`CC(Cc1c[nH]c2ccccc12)(NC(=O)OC1C2CC3CC(C2)CC1C3)C(=O)NC(C=CC(=O)O)Cc1ccccc1` (stereo not drawn) [Compound 6, [R-[R*,S*-(E)]]-4-[[3-(1H-indol-3-yl)-2-methyl-1-oxo-2-[[(tricyclo[3.3.1.1^3,7]dec-2-yloxy)carbonyl]-amino]propyl]amino]-5-phenyl-2-pentenoic acid] had a pIC50 in experiment [1] of 6.06.
In experiment [1], `CC(Cc1c[nH]c2ccccc12)(NC(=O)OC1C2CC3CC(C2)CC1C3)C(=O)NC(CCC(=O)O)Cc1ccccc1` (stereo not drawn) [Compound 7, [R-(R*,S*)]-γ-[[3-(1H-indol-3-yl)-2-methyl-1-oxo-2-[[(tricyclo[3.3.1.1^3,7]dec-2-yloxy)carbonyl]-amino]propyl]amino]benzenepentanoic acid] had a pIC50 of 6.06.
`C[C@](Cc1c[nH]c2ccccc12)(NC(=O)OC1C2CC3CC(C2)CC1C3)C(=O)N(CCC(=O)O)CCc1ccccc1` (stereo partly drawn) [Compound 8, (R)-3-[[3-(1H-indol-3-yl) -2-methyl-1-oxo-2-[[(tricyclo[3.3.1.1^3,7]dec-2-yloxy)carbonyl]amino]-propyl](2-phenylethyl)amino]propanoic acid]: in experiment [1], the pIC50 is 6.04 and 5.74. In addition, the inhibition at 10 µM in experiment [2] is 25%.
As to `C[C@](Cc1c[nH]c2ccccc12)(NC(=O)OC1C2CC3CC(C2)CC1C3)C(=O)NC(CC(=O)O)Cc1ccc(N)cc1` (stereo partly drawn) [Compound 9, L-3-[(4-aminophenyl)methyl]-N-[α-methyl-N-[(tricyclo[3.3.1.1^3,7]dec-2-yloxy)carbonyl]-D-tryptophyl]-β-alanine], in experiment [1], the “ERBA-B % inhibition at 10 μM” value is reported as 9.4%. Besides, the “ERBA-A % inhibition at 10 μM” value in experiment [2] stood at 33.5%.
For the compound `Cc1[nH]c2ccccc2c1C[C@@H](NC(=O)OC1C2CC3CC(C2)CC1C3)C(=O)N[C@@H](Cc1ccccc1)C(=O)NCC(=O)O` (stereo partly drawn) [Compound 10, N-[2-methyl-N-[(tricyclo[3.3.1.1^3,7]dec-2-yloxy)carbonyl]-D-tryptophyl]-L-phenylalanyl-glycine], the results for the inhibition at 10 µM in experiment [1] and in experiment [2] were 39.7% and 45%, respectively.
For `CC(Cc1c[nH]c2ccccc12)(NC(=O)OC1C2CC3CC(C2)CC1C3)C(=O)NC(CC(=O)O)Cc1ccc([N+](=O)[O-])cc1` (stereo not drawn) [Compound 11, [R-(R*,S*)]-β-[[3-(1H-indol-3-yl)-2-methyl-1-oxo-2-[[(tricyclo[3.3.1.1^3,7]dec-2-yloxy)carbonyl]-amino]propyl]amino]-4-nitrobenzenebutanoicacid], the “ERBA-B % inhibition at 10 μM” value in experiment [1] is reported as 51.4%. In addition, in experiment [2], the “ERBA-A % inhibition at 10 μM” value is on record as 47.7%.
For the compound `C[C@](Cc1c[nH]c2ccccc12)(NC(=O)OC1C2CC3CC(C2)CC1C3)C(=O)N(CCc1ccccc1)CC(=O)O` (stereo partly drawn) [Compound 12, N-[α-methyl-N-[(tricyclo[3.3.1.1^3,7]dec-2-yloxy)carbonyl]-D-tryptophyl]-N-(2-phenylethyl)-glycine], in experiment [1], the inhibition at 10 µM is 86%, the “Selectivity ETA / ETB from Table I” value is reported as “selective for ETB” and the pIC50 was 5.74. Besides, the inhibition at 10 µM in experiment [2] stood at 4.1%.
Take `CC(Cc1c[nH]c2ccccc12)(NC(=O)OC1C2CC3CC(C2)CC1C3)C(=O)NC(C=CC=CC(=O)O)Cc1ccccc1` (stereo not drawn) [Compound 14, [R-[R*,S*-(E,E)]]-6-[[3-(1H-indol-3-yl)-2-methyl-1-oxo-2-[[(tricyclo[3.3.1.1^3,7]dec-2-yloxy)-carbonyl]amino]propyl]amino]-7-phenyl-2,4-heptadienoic acid]: the “ERBA-B % inhibition at 10 μM” value in experiment [1] is 39.8%. Also, the “ERBA-A % inhibition at 10 μM” value in experiment [2] is 54.3%.
The corresponding values for `CC(Cc1c[nH]c2ccccc12)(NC(=O)OC1C2CC3CC(C2)CC1C3)C(=O)NC(CCCCC(=O)O)Cc1ccccc1` (stereo not drawn) [Compound 15, [R-(R*,S*)]-ε-[[3-(1H-indol-3-yl)-2-methyl-1-oxo-2-[[(tricyclo[3.3.1.1^3,7]dec-2-yloxy)carbonyl]-amino]propyl]amino]benzeneheptanoic acid] are 36.5% and 51.6%.
Consider `C[C@](Cc1c[nH]c2ccccc12)(NC(=O)NC1CCCCC1)C(=O)O` [Compound 16, N-[(cyclohexylamino)carbonyl]-α-methyl-D-tryptophan], for which the pIC50 in experiment [1] was under 5.00; in experiment [2] (rabbit renal artery vascular smooth muscle cells, [125I]-ET-1 25 pM), 5.82.

By inhibition is commonly meant the relative decrease from the control value, in per cent. By pIC50 is commonly meant the IC50 on a negative log10 scale, so that one unit is a factor of ten. Broadly, the IC50 is the midpoint of a concentration-inhibition curve.

Source of the values: patent US5922681A, “Endothelin antagonists” (Warner-Lambert Company, priority 1992, dated 1999).
